SMILES strings stand for the structures.

The text below walks through data of the OPERA property sets (Mansouri et al. 2018).

On to `CC(C)Nc1nc(Cl)nc(NC2CC2)n1`, for which the logP (in general, the decadic logarithm of the partition coefficient of the neutral form, usually between octanol and water) was 3.06.
Compound `O=C1CCc2ccccc2N1` had a logP of 1.34.
Turning to `CC(=O)NCc1cccc(OCC(O)CNC(C)C)c1` (stereo unspecified), the logP was found to be 0.34.
For `c1ccc2cc3cc4ccccc4cc3cc2c1`, the logP is 5.76.
Compound `Cc1ccc(S(=O)(=O)NC(=O)NC2CCCCC2)cc1` had a logP of 2.9.
For the compound `COc1cccc2c1C(=O)c1c(O)c3c(c(O)c1C2=O)CC(O)(C(C)=O)CC3OC1CC(N2CCOCC2C#N)C(O)C(C)O1` (stereo unspecified), the logP turned out to be 2.59.
To `Nc1nc(N)c2nc(-c3ccc(O)cc3)c(N)nc2n1` belongs 0.92; to `O=C(O)c1ccc(Cl)cc1Nc1cccc(Cl)c1`, 5.
To `COc1cc(Br)c(Cc2cnc(N)nc2N)cc1OC` belongs 1.64.
To `CCCC(=O)c1ccccc1` belongs 2.77; to `COC1CC2(C)C(O)CCC2C2CCc3cc(O)ccc3C12` (stereo unspecified), 2.72.
Take `CC(=O)c1c(O)c(C)c(O)c2c1OC1=CC(=O)C(C(C)=O)C(=O)C12C` (stereo unspecified): the logP came to 2.88.
`CCc1ccc(NC(=O)CN2CCCCC2)cc1` gave a logP of 3.52.
To `CC(CC(=O)O)CC(=O)c1ccc(-c2ccccc2)cc1` (stereo unspecified) belongs 3.82.
To `COc1ccc(COc2ccccc2C(N)=O)cc1` belongs 1.63; to `CC12CCC(=O)C=C1CCC1C3CCC4(CCC(=O)O4)C3(C)CC(O)C12F` (stereo unspecified), 2.4.
To `Cc1ccc(S(=O)(=O)NC(=O)Nc2ccccc2)cc1` belongs 3.11; to `COc1ccc(NC(=O)CN2CCCCC2)cc1`, 2.52; to `CC1c2nc3ccccc3c(=O)n2CN1CCc1ccccc1` (stereo unspecified), 1.8.
On to `CSc1cnc2ccccc2n1`, for which the logP was 2.79.
As to `Cc1ccc(S(=O)(=O)NC(=O)NN2CCCCCC2)cc1`, the logP was found to be 2.69.
To `O=[N+]([O-])c1cc(F)ccc1F` belongs 1.86; to `CCOC(=O)Cn1nnc2ccccc21`, 1.3.
Compound `CCOC(=O)CNC(=O)CNC(=O)CNC(=O)CCCCSc1ncnc2nc[nH]c12` had a lipophilicity (logP) of 0.21.
Take `CC1(C)CCC(c2ccccc2)(N2CCCCC2)CC1`: the logP came out at 6.39.
Compound `CNC(=O)NS(=O)(=O)c1ccc(Cl)cc1` registered a logP of 1.16.
`CCn1c(=O)[nH]c(=O)c2[nH]cnc21` had a logP of -0.11.
To `Cc1ccccc1C(=O)c1ccc2n1CCC2C(=O)O` (stereo unspecified) belongs 2.9.
To `O=C(O)c1ccc(Cl)cc1Nc1ccccc1` belongs 4.25.
To `CCC(C(=O)OCc1ccccc1)C(CO)Cc1cncn1C` (stereo unspecified) belongs 1.97; to `CN1CCC(=C2c3ccccc3C=Cc3ccccc32)CC1`, 4.69; to `CCc1ccc(C)cc1`, 3.63.
Consider `O=C(c1ccc2n1CCC2C(=O)O)C1CCC1` (stereo unspecified), for which the logP was determined as 2.41.
To `CC1OC(OC2CCC3(C=O)C4CCC5(C)C(C6=CC(=O)OC6)CCC5(O)C4CCC3(O)C2)C(O)C(O)C1O` (stereo unspecified) belongs -0.48; to `CCOP(=O)(Cc1ccc(-c2nc3ccccc3s2)cc1)OCC`, 3.5; to `CC(=O)O[C@]1(C(=O)CO)CC[C@H]2[C@@H]3CCC4=CC(=O)CC[C@]4(C)[C@H]3[C@@H](O)C[C@@]21C`, 2.3.
To `Cc1ccc2[nH]c(=O)nc(-c3ccccc3)c2c1` belongs 2.32.
In the case of `CC(=O)Nc1ccccc1C(N)=O`, the logP was determined as 0.32.
Compound `Nc1cccc(I)c1` yielded a logP of 2.86.
To `Clc1ccc(OCc2cccc(CN3CCOCC3)c2)cc1` belongs 3.52.
To `CCOC1OC(CO)C(O)C(O)C1O` (stereo unspecified) belongs -2.28; to `CCN1CC(C(O)C(CC2CCCCC2)NC(=O)C(Cc2cnc[nH]2)NC(=O)C(Cc2ccc(OC)cc2)NC(=O)N2CC(OCOC)C(OCOC)C2)OC1=O` (stereo unspecified), 2.06; to `CCN(CC)CCCC(=O)Nc1c(C)cccc1C`, 2.06.
To `CC(=O)C(C(=O)ON=C(C)C12CC3CC(CC(C3)C1)C2)c1ccccc1` (stereo unspecified) belongs 4.64; to `NC(=O)c1cc(Cl)ccc1NCCO`, 1.26.
In the case of `CNC(=O)NS(=O)(=O)c1ccc(C)cc1`, the logP was found to be 0.95.
Take `Cc1ccc(S(=O)(=O)NC(=O)NN2CCCCC2)cc1`: the logP stood at 1.34.
Regarding `Cc1cc2ccccc2o1`, the logP was 3.22.
To `Cc1cc(C)cc(C2C(=O)c3ccccc3C2=O)c1` belongs 4.02.
To `CCCCCc1cc(O)c2c(c1)OC(C)(C)[C@@H]1CCC(CO)=C[C@@H]21` belongs 5.33; to `CC(C)NCC1CCc2cc(CO)c([N+](=O)[O-])cc2N1` (stereo unspecified), 2.24.
To `COc1cccc(NC(=O)CN2CCCCC2)c1` belongs 2.71; to `C=C(C)C(=O)OC1CC2=CC(CC3(C)OC3C3OC(=O)C(=C)C13)OC2=O` (stereo unspecified), 0.69; to `CC1c2nc3ccccc3c(=O)n2CN1Cc1ccccc1` (stereo unspecified), 1.72.
Regarding `O=[N+]([O-])O[C@@H]1CO[C@H]2[C@@H]1OC[C@@H]2O`, the logP is -0.15.
As for `C=C(C)C(=O)OCc1ccccc1`, the logP amounted to 2.53.
To `O=C1CCC(c2ccccc2)CC1` belongs 2.3; to `OC1(c2ccc(Cl)cc2)CCCCCC1n1cncn1` (stereo unspecified), 3.54; to `CCC(C(=O)OCc1ccc(Cl)cc1)C(COC(=O)c1ccccc1)Cc1cncn1C` (stereo unspecified), 4.9.
`O=C(O)C=COc1ccccc1Cl`: the logP was 2.69.
On to `O=C(O)c1ccc(Cl)cc1Nc1cccc(Br)c1`, for which the logP stood at 5.16.
To `CCCCCCCCCCCCCc1ccc(O)cc1` belongs 8.2.
To `C=C(C)C(=O)OCC(C)(O)COc1cccc2ccccc12` (stereo unspecified) belongs 3.77; to `CNC(=O)OCc1c2c(n3c1C(OC(C)=O)CC3)C(=O)C=C(N1CCCC1)C2=O` (stereo unspecified), 1.4.
To `CCCCCCC(C)(C)c1cc(O)c2c(c1)OC(C)(C)C1CCC(CO)=CC21` (stereo unspecified) belongs 7.83; to `O=C(O)C=COc1ccccc1`, 2.27.
For the compound `CCCCCCCCCCCC(=O)C(C)(C)C(=O)N(C)c1c(OC)cc(OC)cc1OC`, the logP was found to be 6.67.
On to `O=[N+]([O-])c1cc(F)cc(F)c1`, for which the logP came to 2.03.
`COc1ccc(C(O)(Cn2ccnc2)c2ccc(-c3ccncc3)cc2)cc1` (stereo unspecified) came in with a logP of 3.55.
As for `C=CC1CCC2OC2C1` (stereo unspecified), the logP is 2.08.
The compound `Cc1cccc(N=C2NCCN2)c1Cl` displayed a logP of 1.83.
The compound `CN(C)c1ccc2ccccc2n1` came in with a logP of 2.81.
To `O=[N+]([O-])c1cnc(C=Cc2ccc3c(c2)OCO3)n1CCO` belongs 2.03; to `CCC(=O)OC(C(=O)NC12CC3CC(CC(C3)C1)C2)c1ccccc1` (stereo unspecified), 3.72; to `COC(=O)c1ccc(N)cc1`, 1.37.
`O=S(=O)(O)c1cccc2c(O)cccc12` came in with a log partition coefficient (logP) of -0.17.
To `c1ccc2c(c1)ccc1cc3c(ccc4ccccc43)cc12` belongs 6.75; to `CC(C)(C)c1ccc(CC(=O)O)cc1`, 2.98.
To `O=C(Cn1ccnc1[N+](=O)[O-])NC(CO)(CO)CO` belongs -1.77.
On to `CON=C(C(=O)N[C@@H]1C(=O)N2C(C(=O)O)=C(COC(N)=O)CS[C@H]12)c1ccco1`, for which the logP is -0.16.
To `CC1Cc2ccccc2CN1` (stereo unspecified) belongs 1.93.
On to `CCOc1ccc(NC(=O)CN2CCCCC2)cc1`, for which the lipophilicity (logP) was 2.82.
To `Nc1ccc(S(=O)(=O)Nc2ccc([N+](=O)[O-])cc2)cc1` belongs 2.14.
`OCc1cccc2ccccc12` displayed a logP of 2.37.
For `O=C(Cn1ccnc1[N+](=O)[O-])NCC(O)CO` (stereo unspecified), the logP was -1.85.
To `CC(C)NC(=O)COc1ccc(OCCNCC(O)COc2ccccc2)cc1` (stereo unspecified) belongs 2.4.
Compound `CCCCCCCCCCCCCCCCCC(=O)O` had a logP of 8.23.
To `C=C1C(=O)OC2C1C(OC(=O)C(C)=CC)CC(O)(CCl)C1C(OC(C)=O)C=C(C)C21O` (stereo unspecified) belongs 1.42; to `CC(C)C(=O)O`, 0.94; to `Clc1ccc(-c2ccccc2)cc1Cl`, 5.29.
As for `NC1CCc2ccccc2C1` (stereo unspecified), the logP came out at 2.08.
Consider `O=C1c2ccccc2C(=O)C1c1ccc(Cl)cc1`, for which the logP was determined as 3.61.
To `O=c1[nH]c2ccccc2cc1-c1ccccc1` belongs 2.99; to `O=C(Cc1ccccc1)c1ccc2n1CCC2C(=O)O` (stereo unspecified), 2.52; to `Cc1cc2c(ccc3ccc(=O)oc32)o1`, 2.55.
Consider `CCOC(=O)C(C(=O)OCC)=C1SCCS1`, for which the logP is 2.45.
Consider `COc1cc(Cc2cnc(N)nc2N)c(I)c(OC)c1OC`, for which the logP came out at 1.79.
On to `CCOC(=O)CC(NC(=O)CCCCSc1ncnc2nc[nH]c12)C(=O)OCC` (stereo unspecified), for which the logP is 1.33.
To `O=C1Nc2ccccc2C1c1ccccc1` (stereo unspecified) belongs 2.59.
Compound `CCn1c(=O)n(C)c(=O)c2[nH]cnc21` had a logP of 0.52.
To `O=C(O)CCC(=O)c1ccccc1` belongs 1.3.
To `COCOC(=O)C1N2C(=O)C(N3C(=O)C(c4ccc(O)cc4)NC3(C)C)C2SC1(C)C` (stereo unspecified) belongs 0.3.
To `Nc1ccn(C2OC(CCl)C(O)C2O)c(=O)n1` (stereo unspecified) belongs -1.05; to `C=C(C)OCc1ccccc1`, 2.41.
`C#CC1(O)C(F)CC2C3CCc4cc(O)ccc4C3CCC21C` (stereo unspecified) yielded a logP of 3.3.
Compound `CC(=O)OC(C(=O)ON=C(C)C12CC3CC(CC(C3)C1)C2)c1ccccc1` (stereo unspecified) yielded a logP of 5.89.
To `CCCC(=O)OCC(Cc1cncn1C)C(CC)C(=O)OCc1ccccc1` (stereo unspecified) belongs 3.78; to `NCCc1cnc[nH]1`, -0.7; to `CC(=O)c1ccccc1Br`, 2.28.
To `O=[N+]([O-])c1ccc(O)cc1O` belongs 1.05; to `C=CCC(NC(=O)C(Cc1ccccc1)NS(=O)(=O)N1CCOCC1)C(=O)NC(CC1CCCCC1)C(=O)C(F)(F)C(=O)NCCN1CCOCC1` (stereo unspecified), 3.39; to `COCc1cnc(-c2ccc(OCC(O)CNCCc3ccc(OC)c(OC)c3)cc2)[nH]1` (stereo unspecified), 1.71.
To `ClC1=C(Cl)C2(Cl)C3C4OC4C(Cl)C3C1(Cl)C2(Cl)Cl` (stereo unspecified) belongs 4.98.
`COCCNC(=O)COc1ccc(OCCNCC(O)COc2ccccc2)cc1` (stereo unspecified) displayed a logP of 1.7.
In turn, `O=C(c1ccc(-c2ccccc2)cc1)c1ccc2n1CCC2C(=O)O` (stereo unspecified) displayed a logP of 4.27.
To `CC(C)NCC(O)c1ccc2ccccc2c1` (stereo unspecified) belongs 3.
